Data: ChEMBL document CHEMBL1123852, “Synthesis and structure-activity studies of corticosteroid 17-heterocyclic aromatic esters. 1. 9 alpha, 11 beta-dichloro series” (1987)

Key:
Mus musculus [1] = species: Mus musculus; assay: Antiinflammatory potency to betamethasone 17-valerate measured in mice using 5 hr Tonelli croton oil ear test.; format: functional
Mus musculus [2] = species: Mus musculus; assay: Antiinflammatory potency to betamethasone 17-valerate measured in mice using 5 day Tonelli croton oil ear test.; format: functional

Compound	Topical potency (Mus musculus [1])	Topical potency (Mus musculus [2])
CC1CC2C3C[C@H](F)C4=CC(=O)C=CC4(C)[C@@]3(Cl)C(Cl)CC2(C)[C@@]1(OC(=O)c1ccco1)C(=O)CCl (some centres undefined)	2.5	3
CC1CC2C3CCC4=CC(=O)C=CC4(C)[C@@]3(Cl)C(Cl)CC2(C)[C@@]1(OC(=O)c1cccs1)C(=O)CCl (some centres undefined)	0.7	3.3
CC(=O)OCC(=O)[C@@]1(OC(=O)c2ccco2)[C@H](C)CC2C3CCC4=CC(=O)C=C[C@]4(C)[C@@]3(Cl)C(Cl)C[C@@]21C (some centres undefined)	1.4	1.2
CC(=O)OCC(=O)[C@@]1(OC(=O)c2cccs2)C(C)CC2C3CCC4=CC(=O)C=CC4(C)[C@@]3(Cl)C(Cl)CC21C (some centres undefined)	1.3	0.8
COCC(=O)OCC(=O)[C@@]1(OC(=O)c2ccco2)C(C)CC2C3CCC4=CC(=O)C=CC4(C)[C@@]3(Cl)C(Cl)CC21C (some centres undefined)	1	3
CC1CC2C3CCC4=CC(=O)C=CC4(C)[C@@]3(Cl)C(Cl)CC2(C)[C@@]1(OC(=O)c1cccs1)C(=O)CO (some centres undefined)	0.8	–
CC1CC2C3CCC4=CC(=O)C=CC4(C)[C@@]3(Cl)C(Cl)CC2(C)[C@@]1(OC(=O)c1ccco1)C(=O)CF (some centres undefined)	1.8	4
CC1CC2C3CCC4=CC(=O)C=CC4(C)[C@@]3(Cl)C(Cl)CC2(C)[C@@]1(OC(=O)c1ccoc1)C(=O)CO (some centres undefined)	0.7	–
CCCCC(=O)O[C@]1(C(=O)CO)[C@@H](C)C[C@H]2[C@@H]3CCC4=CC(=O)C=C[C@]4(C)[C@@]3(F)[C@@H](O)C[C@@]21C [BETAMETHASONE VALERATE]	1	1
C[C@H]1CC2C3CCC4=CC(=O)C=C[C@]4(C)[C@@]3(Cl)C(Cl)C[C@]2(C)[C@@]1(OC(=O)c1ccco1)C(=O)CCl (some centres undefined)	1.2	0.8
CC(=O)OCC(=O)[C@@]1(OC(=O)c2ccoc2)C(C)CC2C3CCC4=CC(=O)C=CC4(C)[C@@]3(Cl)C(Cl)CC21C (some centres undefined)	1.3	1.4
CC1CC2C3CCC4=CC(=O)C=CC4(C)[C@@]3(Cl)C(Cl)CC2(C)[C@@]1(OC(=O)c1ccco1)C(=O)CO (some centres undefined)	0.8	–
CC(=O)OCC(=O)[C@@]1(OC(=O)c2cccn2C)C(C)CC2C3CCC4=CC(=O)C=CC4(C)[C@@]3(Cl)C(Cl)CC21C (some centres undefined)	1.1	–
CC(=O)OCC(=O)[C@@]1(OC(=O)c2ccco2)[C@@H](C)CC2C3CCC4=CC(=O)C=C[C@]4(C)[C@@]3(Cl)C(Cl)C[C@@]21C (some centres undefined)	1.3	1.7
CCCC(=O)OCC(=O)[C@@]1(OC(=O)c2ccco2)C(C)CC2C3CCC4=CC(=O)C=CC4(C)[C@@]3(Cl)C(Cl)CC21C (some centres undefined)	1	–
CCC(=O)OCC(=O)[C@@]1(OC(=O)c2ccco2)C(C)CC2C3CCC4=CC(=O)C=CC4(C)[C@@]3(Cl)C(Cl)CC21C (some centres undefined)	1.1	0.9
CC(=O)OCC(=O)[C@@]1(OC(=O)c2ccc(Br)o2)C(C)CC2C3CCC4=CC(=O)C=CC4(C)[C@@]3(Cl)C(Cl)CC21C (some centres undefined)	0.6	–
CC1CC2C3CCC4=CC(=O)C=CC4(C)[C@@]3(Cl)C(Cl)CC2(C)[C@@]1(OC(=O)c1ccoc1)C(=O)CCl (some centres undefined)	1	1.7
C[C@@H]1CC2C3CCC4=CC(=O)C=C[C@]4(C)[C@@]3(Cl)C(Cl)C[C@]2(C)[C@@]1(OC(=O)c1ccco1)C(=O)CCl (some centres undefined)	1.9	8.2
CC(=O)OCC(=O)[C@@]1(OC(=O)c2cnc3ccccc3n2)C(C)CC2C3CCC4=CC(=O)C=CC4(C)[C@@]3(Cl)C(Cl)CC21C (some centres undefined)	0.3	–
CC(=O)OCC(=O)[C@@]1(OC(=O)c2ccc(C)s2)C(C)CC2C3CCC4=CC(=O)C=CC4(C)[C@@]3(Cl)C(Cl)CC21C (some centres undefined)	1.2	0.56
CC(=O)OCC(=O)[C@@]1(OC(=O)c2ccco2)C(C)CC2C3C[C@H](F)C4=CC(=O)C=CC4(C)[C@@]3(Cl)C(Cl)CC21C (some centres undefined)	3.3	1.8
CC(=O)OCC(=O)[C@@]1(OC(=O)c2ccsc2)C(C)CC2C3CCC4=CC(=O)C=CC4(C)[C@@]3(Cl)C(Cl)CC21C (some centres undefined)	0.9	3.2
